What was measured:
[1] = biological target: T1, heat-resistant sarcosine oxidase N from Bacillus sp. NS-129 (present enzyme) (Bacillus sp., UniProt P23342); assay: Inhibition of heat-resistant sarcosine oxidase N; format: biochemical; details: inhibitor at 2 mM
T1 construct: the present enzyme is ordinarily present within the cells; made in house; host or cells: Bacillus sp; NS-129 (FERM BP-671), the native producer; purified from the cells
T1 sequence (P23342 1-387): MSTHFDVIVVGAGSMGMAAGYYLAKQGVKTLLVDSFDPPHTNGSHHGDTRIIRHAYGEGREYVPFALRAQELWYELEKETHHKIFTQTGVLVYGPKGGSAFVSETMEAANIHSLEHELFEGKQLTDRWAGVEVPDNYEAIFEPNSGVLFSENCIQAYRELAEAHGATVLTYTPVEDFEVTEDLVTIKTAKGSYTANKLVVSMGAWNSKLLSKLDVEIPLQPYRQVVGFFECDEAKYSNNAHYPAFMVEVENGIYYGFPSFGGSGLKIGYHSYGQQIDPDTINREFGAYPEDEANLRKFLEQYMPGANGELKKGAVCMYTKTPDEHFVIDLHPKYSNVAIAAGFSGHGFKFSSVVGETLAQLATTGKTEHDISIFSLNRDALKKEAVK

[2] = biological target: Known enzyme*2: the sarcosine oxidase described in J. Biochem. 89, 599 (1981) JAPAN (Corynebacterium sp., UniProt Q50LF2); details: read-out: Km value for sarcosine; 37° C., pH 7.7; Table 1, known enzyme*2; cited from earlier work
[3] = substrate: CNCC(=O)O; assay: Km determination of heat-resistant sarcosine oxidase N (present enzyme); format: biochemical, Bacillus sp. NS-129; details: other: 37° C., pH 7.7 (phosphate buffer solution)
Procedure: First method: Sarcosine is oxidatively decomposed using the present enzyme and the resulting formaldehyde is determined by colorimetry.
To 0.3 ml of a 0.2 M sarcosine solution were added 0.1 ml of a 0.3 M phosphate buffer solution (pH 7.7) and 0.1 ml of a solution containing an appropriate concentration of the present enzyme. They were subjected to reaction at 37° C. for 10 minutes. The reaction was stopped by addition of 0.5 ml of a 1.0 N acetic acid solution. Thereto was added 3 ml of a color reagent (pH 6.5) containing 0.02% (V/V) of acetylacetone and 10% (W/V) of diammonium hydrogen phosphate. The resulting mixture was subjected to color development at 37° C. for 40 minutes. The absorbance of the resulting color at 410 nm was measured using a photoelectric photometer.
Second method: Sarcosine is oxidatively decomposed using the present enzyme and the resulting hydrogen peroxide (H2 O2) is determined by colorimetry.
0.1 ml of a solution containing an appropriate concentration of the present enzyme was added to a mixture of 0.5 ml of a 0.2 M sarcosine solution, 0.1 ml of a 0.3 M phosphate buffer solution (pH 7.7), 0.1 ml of a 0.2% 2,4-dichlorophenol sulfonate solution, 0.1 ml of a 70 mg/100 ml 4-aminoantipyrine solution and 0.1 ml of a 70 units/ml peroxidase solution. […] The absorbance of the resulting color at 510 nm was measured using a photoelectric photometer.

Molecule: CCN1C(=O)C=CC1=O [N-ethylmaleimide]
- Inhibition of the enzyme [1]: strongly inhibited

Molecule: O=C(O)CI [monoiodoacetic acid]
- Inhibition of the enzyme [1]: strongly inhibited

Molecule: CNCC(=O)O [sarcosine, N-methylglycine]
- Km [2]: 3.4 mM

B1: heat-resistant sarcosine oxidase N from Bacillus sp. NS-129 (present enzyme) (Bacillus sp. NS-129) (protein)
chain: T1 sequence (P23342 1-387)
notes: the present enzyme is ordinarily present within the cells; made in house; host or cells: Bacillus sp; NS-129 (FERM BP-671), the native producer; purified from the cells
- Km [3]: 4.7 mM

Source: patent US4740465A, “Heat-resistant sarcosine oxidase N and process for producing the same” (Noda Institute for Scientific Research, priority 1985, dated 1988)
